How the values were obtained:
[1] = system: NEB 5 α competent E. coli; assay: Bacterial colony forming assay (Examples 6-9); assay type: cell-based; conditions: alcohol gel
Method: NEB 5 α competent E. coli were retrieved from frozen cultures and grown overnight in a bacterial incubator at 37° C. Proliferating cultures of bacteria were used in a colony forming assay by adding 25 μL of bacteria from the overnight culture to 10 mL of fresh Lysogeny Broth (LB; Bertani, G. (2004). “Lysogeny at mid-twentieth century: P1, P2, and other experimental systems”. Journal of Bacteriology. 186 (3): 595-600. PMC 321500. PMID 14729683. doi:10.1128/JR.186.3.595-600.2004). 1 mL of this diluted bacteria was added to various dilutions of formulations of substituted tolan compounds as described in Table C, below and in charts of the corresponding Figures.
One mL of each formulation was mixed with 1 mL of diluted bacteria in LB and put onto agar plates. Alcohol gels were allowed to dry and incubated overnight for 16-18 hrs. Control plates consisted of 2 mL alcohol gel plus 1 mL diluted bacteria, resulting in a colony count of less than 10 colonies, a 1 mL alcohol gel plus 1 mL diluted bacteria, resulting in a partial lawn of bacteria (colonies were too close to count appropriately), 1 mL diluted bacteria alone, resulting in a full lawn of bacteria (no distinguishable colonies), and an appropriate dilution of PEG-400 and HPβCD into 1 mL of alcohol gel plus 1 mL diluted bacteria, resulting in a lawn of bacteria. Plate area was then selected and the Image J colony counter was used to obtain colony counts (Size (pixels squared) 5-1000 and circularity 0.5-1).

[2] = system: S. typhimurium TA97a; assay: Dose range finding colony forming assay, strain TA97a with metabolic activation; assay type: cell-based; conditions: positive control, 2.5 μg/plate
Method: (§1) A series of dose range finding assays were performed with five bacterial strains, S. typhimurium TA97a, TA98, TA100, TA1535, and E. coli WP2 uvrA pKM101, with and without metabolic activation at three plates per dose. The following doses, along with positive and negative controls, were tested: 5000, 2500, 1250, 500, 250, 125, 50, 20, 10, 5, 2, 1, and 0.2 μg/plate. The plates were evaluated for toxicity (a decrease in plate counts with increasing dose and/or a visible thinning of the background lawn) and for precipitation of the test article. Metabolic activation was included in some samples by adding phenobarbital/benzoflavone-induced rat liver S9 fractions with cofactors (S9 mix). Prior to use, freshly thawed aliquots of rat liver S9 were mixed with a sterile cofactor mix. The S9 mix contains a 10% liver S9 concentration and was refrigerated or stored on ice until used. When testing with metabolic activation, the S9 mix was used in the assay tube in place of phosphate buffer.
(§2) Dosing formulations were prepared to deliver all doses in a constant volume of 0.1 mL. The highest dose was prepared from test article weighed to the nearest 0.1 mg and the remaining formulations were prepared as serial dilutions from the high dose stock formulation. Using a permanent marking pen or computer printed labels, assay plates were labeled with the project and study numbers and the date. Assay plates and tubes were labeled with a unique identifier, which was used to match the assay tubes with the properly identified minimal glucose agar plate.
(§3) The pre-incubation method was used to perform the assay. The assay mix consisted of 0.1 mL of the test article formulation or control article, 0.5 mL S9 mix or phosphate buffer, and 0.1 mL of bacterial culture. Assay tubes were incubated at 37±1° C. with gentle agitation for 20±1 minutes, then 2.0-2.5 mL top agar was added to the assay mix and the top agar/assay mix poured onto appropriately labeled minimal glucose agar plates. Once the top agar hardened, the plates were inverted and incubated at 37±1° C. for 48±2 hours. Plates were counted with the Sorcerer (v. 2.2)/Ames Study Manager (v. 1.2.4) system from Perceptive Instruments (Suffolk, UK). With this system, plate counts are automatically transferred from the plate imager (Sorcerer) to a Study Manager spreadsheet, and the data are stored in a secure manner on an Oracle database. Some plates were hand counted, e.g., if sample precipitate interferes with automatic counting or toxicity results in the formation of microcolonies, in which case, counts for these plates were entered into the spreadsheet manually. Plates were scored also with the extent of colonization by a post fix code.

[3] = system: S. typhimurium TA98; assay: Dose range finding colony forming assay, strain TA98 with metabolic activation; assay type: cell-based; conditions: positive control, 2 μg/plate
Method: as §1, §2, §3

[4] = system: Methicillin Resistant Staphylococcus aureus (MRSA USA 300); assay: Colony forming assay, spread plate, MRSA USA 300; assay type: cell-based; conditions: Tobramycin 600 μg/mL; compared to the untreated control; 24 h; FIGS. 6A-6B
Method: A fresh culture of pathogenic isolate was used in these examples. The bacterial strains used were Methicillin Resistant Staphylococcus aureus (MRSA USA 300), Pseudomonas aeruginosa ATCC 27312, and Candida albicans ATCC 64550.
FIG. 5 illustrates the spread plate method used in these examples. In sum, agar plates were made, bacteria were diluted to 10^6 or 10^8 CFU/mL, bacteria and drug were mixed together and then plated. Glass spreading beads were used because they give a better bacterial spread. Plates were incubated for 24 hrs then the colonies that formed were counted.
Proliferating cultures of Methicillin Resistant Staphylococcus aureus (MRSA, USA 300) were used in a colony forming assay. Freeze-dried bacteria culture of MRSA was recovered by swabbing a 3-cm diameter growth area and resuspending it to obtain a final inoculum suspension of approximately 10^8 CFU/mL. The concentration was confirmed using historical optical density measurements. The total compound BM3103 was suspended in a 70% v/v alcohol gel formulation (Formulation A) before the introduction of bacteria, with the vehicle consisting of solely the 70% v/v alcohol gel. MRSA at 10^8 CFU/mL was challenged with equal parts of a high, medium, and low dose of BM3103, vehicle formulation, positive control (Tobramycin, 600 μg/mL), or untreated control (phosphate buffered saline). The inoculum was plated on Tryptic Soy Broth plates at 37° C. for 24 h. Plates were photographed and counted. The treatment for each experiment was done in triplicate, and the experiment was repeated three times, for a total of 9 plates per group.
Colony counts for each treatment were tabulated and the Log of the colony forming units/mL (Log CFU/mL) was determined. The mean and standard deviation of the Log CFU/mL were calculated for each treatment. A one-way analysis of variance was performed at a 95% confidence interval.

[5] = system: Methicillin Resistant Staphylococcus aureus (MRSA, USA 400); assay: Colony forming assay, 24 h plate assay, MRSA USA 400; assay type: cell-based; conditions: Tobramycin 600 μg/mL, compared to the vehicle control, FIG. 9
Method: Proliferating cultures of Methicillin Resistant Staphylococcus aureus (MRSA, USA 400) were used in a colony forming assay. Frozen stock cultures of MRSA USA 400 were thawed and grown overnight in tryptic soy broth (TSB) with shaking at 37° C. The overnight culture (0.5-1.0 mL) was added to 100 mL TSB and grown at 37° C. with shaking and monitored for an optical density of 0.55-0.60 in order to obtain a final inoculum suspension of approximately 10^8 CFU/mL.
BM3103 was suspended into a 70% v/v alcohol gel formulation to acquire the desired % w/v tested within the example. Each concentration was vortexed thoroughly until dissolved. Initial tested concentrations of BM3103 were 1, 0.5, and 0.1% w/v. These concentrations and the alcohol gel vehicle were mixed with equal parts of the 10^8 CFU/mL inoculum to obtain a final concentration of 0.5, 0.25, and 0.05% (22 mM, 11 mM, and 2 mM) BM3103. Tobramycin (600 μg/mL) served as the positive control. Vehicle and BM3103 formulations contained matching final concentration of 35% v/v alcohol.
BM3103 was dissolved into Transcutol (diethylene glycol monoethyl ether) at 2.5% w/v and vortexed until dissolved. This concentration was then serial diluted to achieve the remaining concentrations tested. Before plating, 100 μL of the final inoculum (10^8 CFU/mL) was mixed with 20 μL TSB broth and 80 μL of BM3103 doses or vehicle. Tobramycin, 600 μg/mL, served as the positive control. The final plating concentrations for BM3103 were 1, 0.5, 0.25, and 0.1% w/v (44 mM, 22 mM, 11 mM, 4 mM) BM3103. Vehicle and BM3103 formulations contained matching final concentration of 40% v/v Transcutol.
The above listed formulations combined with the MRSA inoculum were plated onto TSB agar plates. The plates were grown at 37° C. for 24 h, imaged, and the bacteria colonies were counted. The experiment was done in triplicate at each concentration level described above. Colony counts for each treatment were tabulated and the Log of the colony forming units/mL (Log CFU/mL) were determined. The mean and the standard error of the mean were calculated for each treatment.

[6] = system: S. typhimurium TA1535; assay: Dose range finding colony forming assay, strain TA1535 without metabolic activation; assay type: cell-based; conditions: positive control, 1 μg/plate
Method: as §1, §2, §3

[7] = system: S. typhimurium TA100; assay: Dose range finding colony forming assay, strain TA100 with metabolic activation; assay type: cell-based; conditions: positive control, 2 μg/plate
Method: as §1, §2, §3

[8] = system: wild type E. Coli; conditions: previous data; cited from earlier work

Oc1ccc(C#Cc2ccc(C(F)(F)F)cc2)cc1 [BM3213, 4-hydroxy-4′-(trifluoro)methyltolan]
Inhibition of E. coli growth ([1]; 2.23 mM, FIG. 3): very inhibitory to E. coli
Inhibition of E. coli growth ([1]; concentrations 10 fold diluted from 2.23 mM, FIG. 3): less so

COc1ccc(C#Cc2ccc(OC)c(OC)c2)cc1 [BM3303, 3,4,4′-trimethoxytolan]
Inhibition of E. coli growth ([1]; 1.11 mM, FIG. 4): an inhibitor to E. coli
Dose dependence of inhibition of E. coli ([1]; FIG. 4): dose dependent inhibitory effects
Inhibition of E. coli growth ([1]; concentrations 10-fold diluted from 1.11 mM, FIG. 4): less so

Nc1ccc2cc3ccccc3cc2c1 [Compound 2A, 2-Aminoanthracene, reference compound]
Colony forming units/plate [2]: 3241.3 colony forming units/plate
Colony forming units/plate [3]: 2315.0 colony forming units/plate

NC[C@H]1O[C@H](O[C@H]2[C@H](O)[C@@H](O[C@H]3O[C@H](CO)[C@@H](O)[C@H](N)[C@H]3O)[C@H](N)C[C@@H]2N)[C@H](N)C[C@@H]1O [Tobramycin, reference compound]
Reduction of MRSA USA 300 counts [4]: 6 fold
Reduction of MRSA USA 400 counts [5]: 4 fold

[N-]=[N+]=[N-] [NaN3, Sodium Azide, reference compound]
Colony forming units/plate [6]: 714.7 colony forming units/plate

c1ccc2c(c1)cc1ccc3cccc4ccc2c1c34 [BAP_Moltox, Benzo(a) pyrene_Moltox, reference compound]
Colony forming units/plate [7]: 806.0 colony forming units/plate

Oc1ccc(C#Cc2cc(O)cc(O)c2)cc1 [3,5,4′-trihydroxytolan]
Effectiveness against wild type E. Coli [8]: ineffective

— patent US12678412B2, “Substituted tolans for the modulation of microbial colonization” (BioMendics, LLC, priority 2017, dated 2026)
